From patent US20240287045A1, “CRYSTAL FORM OF PYRIMIDINE DERIVATIVE AND PREPARATION METHOD THEREFOR” (ZHEJIANG HISUN PHARMACEUTICAL CO., LTD., priority 2021, published 2024)

Experiments:
Type in all cases: physicochemical
[1] = Stability experiment: purity after 10 days of humidity, heat or light; conditions: for stability compared with the amorphous form: conclusion from Table 6
Experimental: High-performance liquid chromatography (HPLC) test conditions involved in the present disclosure: the model of the liquid chromatograph was Agilent 1260; the chromatographic column was Waters XBridge C18 150*4.6 mm 3.5 μm; the detection wavelength was 234 nm; and the column temperature was 25° C.
(§1) The amorphous form of the compound of formula I prepared in Preparation Example, the crystal form A of the compound of formula I prepared in Example 1, the crystal form B of the compound of formula I prepared in Example 32, the crystal form C of the compound of formula I prepared in Example 48, the crystal form D of the compound of formula I prepared in Example 51, and the crystal form E of the compound of formula I prepared in Example 54 were placed in 75% RH, 92.5% RH, 40° C., 60° C. and light for 10 days respectively, and the X-ray powder diffraction pattern and purity of each crystal form were measured.

[2] = Granularity experiment (D50, D90); conditions: for D50 / D90: granularity
Experimental: as §1, with “measured” for “placed in 75% RH, 92.5% RH, 40° C., 60° C. and light”, “granularity,” for “10 days respectively,”, “specific results are shown in Table 7 below: […]” for “X-ray powder diffraction pattern and purity of each crystal form were measured.”

[3] = Fluidity test (angle of repose); conditions: for fluidity / angle of repose (in words): crystal forms compared with amorphous form
Experimental: as §1, with “measured” for “placed in 75% RH, 92.5% RH, 40° C., 60° C. and light”, “angle of repose,” for “10 days respectively,”, “specific results are shown in Table 8 below: […]” for “X-ray powder diffraction pattern and purity of each crystal form were measured.”

[4] = Hygroscopicity test; conditions: for Hygroscopicity: 75% RH and 25° C. for 24 h, by weighing; for hygroscopicity (in words): crystal forms compared with amorphous form
Experimental: The amorphous form of the compound of formula I prepared in Preparation Example, the crystal form A of the compound of formula I prepared in Example 1, the crystal form B of the compound of formula I prepared in Example 32, the crystal form C of the compound of formula I prepared in Example 48, the crystal form D of the compound of formula I prepared in Example 51, and the crystal form E of the compound of formula I prepared in Example 54 were placed in an environment of 75% RH and 25° C. for 24 h and then weighed to calculate the hygroscopicity, respectively.

SMILES: C=CC(=O)Nc1cc(N2CCN(CC)C3(CC3)C2)ccc1Nc1cc(N(C)C(=O)Nc2c(Cl)c(OC)cc(OC)c2Cl)ncn1 [Crystal form D, N-(2-((6-(3-(2,6-dichloro-3,5-dimethoxyphenyl)-1-methylureido)pyrimidin-4-yl)amino)-5-(4-ethyl-4,7-diazaspiro[2.5]octan-7-yl)phenyl)acrylamide]
- purity ([1]; 40° C. for 10 days): 99.52
- purity ([1]; 60° C. for 10 days): 99.49
- purity ([1]; 75% RH for 10 days): 99.54
- purity ([1]; 92.5% RH for 10 days): 99.54
- purity ([1]; Day 0): 99.55
- purity ([1]; Light for 10 days): 99.53
- stability compared with the amorphous form [1]: better stability
- D50 [2]: 20.98 μm
- D90 [2]: 70.49 μm
- fluidity / angle of repose (in words) [3]: significantly better than the amorphous form in terms of fluidity
- angle of repose ([3]; measurement 1): 35.6°
- angle of repose ([3]; measurement 2): 36.2°
- angle of repose ([3]; measurement 3): 35.1°
- Hygroscopicity [4]: 0.16%
- hygroscopicity (in words) [4]: significantly better than the amorphous form in terms of hygroscopicity

SMILES: C=CC(=O)Nc1cc(N2CCN(CC)C3(CC3)C2)ccc1Nc1cc(N(C)C(=O)Nc2c(Cl)c(OC)cc(OC)c2Cl)ncn1 [Crystal form B, N-(2-((6-(3-(2,6-dichloro-3,5-dimethoxyphenyl)-1-methylureido)pyrimidin-4-yl)amino)-5-(4-ethyl-4,7-diazaspiro[2.5]octan-7-yl)phenyl)acrylamide]
- purity ([1]; 40° C. for 10 days): 99.69
- purity ([1]; 60° C. for 10 days): 99.72
- purity ([1]; 75% RH for 10 days): 99.75
- purity ([1]; 92.5% RH for 10 days): 99.73
- purity ([1]; Day 0): 99.75
- purity ([1]; Light for 10 days): 99.73
- stability compared with the amorphous form [1]: better stability
- D50 [2]: 21.98 μm
- D90 [2]: 71.56 μm
- fluidity / angle of repose (in words) [3]: significantly better than the amorphous form in terms of fluidity
- angle of repose ([3]; measurement 1): 34.6°
- angle of repose ([3]; measurement 2): 35.7°
- angle of repose ([3]; measurement 3): 35.2°
- Hygroscopicity [4]: 0.12%
- hygroscopicity (in words) [4]: significantly better than the amorphous form in terms of hygroscopicity

SMILES: C=CC(=O)Nc1cc(N2CCN(CC)C3(CC3)C2)ccc1Nc1cc(N(C)C(=O)Nc2c(Cl)c(OC)cc(OC)c2Cl)ncn1 [Amorphous form, N-(2-((6-(3-(2,6-dichloro-3,5-dimethoxyphenyl)-1-methylureido)pyrimidin-4-yl)amino)-5-(4-ethyl-4,7-diazaspiro[2.5]octan-7-yl)phenyl)acrylamide]
- purity ([1]; 40° C. for 10 days): 94.67
- purity ([1]; 60° C. for 10 days): 94.73
- purity ([1]; 75% RH for 10 days): 94.93
- purity ([1]; 92.5% RH for 10 days): 94.83
- purity ([1]; Day 0): 95.33
- purity ([1]; Light for 10 days): 94.97
- D50 relative to the crystal forms ([2]; amorphous form D50 as share of crystal forms A-E): ≤ 13%
- D90 relative to the crystal forms ([2]; amorphous form D90 as share of crystal forms A-E): ≤ 33%
- granularity (in words) ([2]; compared with crystal forms A-E): remarkably small granularity
- D50 [2]: 2.68 μm
- D90 [2]: 22.82 μm
- D50 ([2]; listed as amorphous form): 2.68 μm
- D90 ([2]; listed as amorphous form): 22.82 μm
- fluidity / angle of repose (in words) [3]: significantly larger
- angle of repose ([3]; measurement 1): 43.3°
- angle of repose ([3]; measurement 2): 42.6°
- angle of repose ([3]; measurement 3): 41.9°
- Hygroscopicity [4]: 0.52%
- hygroscopicity (in words) [4]: significantly greater

SMILES: C=CC(=O)Nc1cc(N2CCN(CC)C3(CC3)C2)ccc1Nc1cc(N(C)C(=O)Nc2c(Cl)c(OC)cc(OC)c2Cl)ncn1 [Crystal form A, N-(2-((6-(3-(2,6-dichloro-3,5-dimethoxyphenyl)-1-methylureido)pyrimidin-4-yl)amino)-5-(4-ethyl-4,7-diazaspiro[2.5]octan-7-yl)phenyl)acrylamide]
- purity ([1]; 40° C. for 10 days): 99.83
- purity ([1]; 60° C. for 10 days): 99.81
- purity ([1]; 75% RH for 10 days): 99.85
- purity ([1]; 92.5% RH for 10 days): 99.83
- purity ([1]; Day 0): 99.87
- purity ([1]; Light for 10 days): 99.87
- stability compared with the amorphous form [1]: better stability
- D50 [2]: 22.37 μm
- D90 [2]: 72.86 μm
- fluidity / angle of repose (in words) [3]: significantly better than the amorphous form in terms of fluidity
- angle of repose ([3]; measurement 1): 33.4°
- angle of repose ([3]; measurement 2): 31.8°
- angle of repose ([3]; measurement 3): 33.7°
- Hygroscopicity [4]: 0.10%
- hygroscopicity (in words) [4]: significantly better than the amorphous form in terms of hygroscopicity

SMILES: C=CC(=O)Nc1cc(N2CCN(CC)C3(CC3)C2)ccc1Nc1cc(N(C)C(=O)Nc2c(Cl)c(OC)cc(OC)c2Cl)ncn1 [Crystal form E, N-(2-((6-(3-(2,6-dichloro-3,5-dimethoxyphenyl)-1-methylureido)pyrimidin-4-yl)amino)-5-(4-ethyl-4,7-diazaspiro[2.5]octan-7-yl)phenyl)acrylamide]
- purity ([1]; 40° C. for 10 days): 99.53
- purity ([1]; 60° C. for 10 days): 99.52
- purity ([1]; 75% RH for 10 days): 99.56
- purity ([1]; 92.5% RH for 10 days): 99.54
- purity ([1]; Day 0): 99.56
- purity ([1]; Light for 10 days): 99.55
- stability compared with the amorphous form [1]: better stability
- D50 [2]: 20.98 μm
- D90 [2]: 69.99 μm
- fluidity / angle of repose (in words) [3]: significantly better than the amorphous form in terms of fluidity
- angle of repose ([3]; measurement 1): 35.5°
- angle of repose ([3]; measurement 2): 36.1°
- angle of repose ([3]; measurement 3): 35.9°
- Hygroscopicity [4]: 0.20%
- hygroscopicity (in words) [4]: significantly better than the amorphous form in terms of hygroscopicity

SMILES: C=CC(=O)Nc1cc(N2CCN(CC)C3(CC3)C2)ccc1Nc1cc(N(C)C(=O)Nc2c(Cl)c(OC)cc(OC)c2Cl)ncn1 [Crystal form C, N-(2-((6-(3-(2,6-dichloro-3,5-dimethoxyphenyl)-1-methylureido)pyrimidin-4-yl)amino)-5-(4-ethyl-4,7-diazaspiro[2.5]octan-7-yl)phenyl)acrylamide]
- purity ([1]; 40° C. for 10 days): 99.66
- purity ([1]; 60° C. for 10 days): 99.66
- purity ([1]; 75% RH for 10 days): 99.71
- purity ([1]; 92.5% RH for 10 days): 99.68
- purity ([1]; Day 0): 99.72
- purity ([1]; Light for 10 days): 99.70
- stability compared with the amorphous form [1]: better stability
- D50 [2]: 21.77 μm
- D90 [2]: 70.88 μm
- fluidity / angle of repose (in words) [3]: significantly better than the amorphous form in terms of fluidity
- angle of repose ([3]; measurement 1): 34.2°
- angle of repose ([3]; measurement 2): 35.4°
- angle of repose ([3]; measurement 3): 33.9°
- Hygroscopicity [4]: 0.15%
- hygroscopicity (in words) [4]: significantly better than the amorphous form in terms of hygroscopicity
